Assay results reported in ChEMBL document CHEMBL1201862, “PubChem BioAssay data set” (2004).
The source made the active and inactive calls.

What was measured:
[1] = Luminescence-based cell-based high throughput dose response assay to identify activators of the DAF-12 from the parasite S. stercoralis (ssDAF-12).; assay type: functional
[2] = biological target: T1, Oxysterols receptor LXR-beta (Homo sapiens, UniProt P55055); assay: LXR agonists, Gal4 luciferase reporter, dose response, counter-screen for ssDAF-12 agonist project, cell-based, luminescence, HEK293, S. stercoralis campaign (AID 720737); assay type: functional; settings: read-out: IC50 (the source's name)
T1 sequence (P55055 whole entry): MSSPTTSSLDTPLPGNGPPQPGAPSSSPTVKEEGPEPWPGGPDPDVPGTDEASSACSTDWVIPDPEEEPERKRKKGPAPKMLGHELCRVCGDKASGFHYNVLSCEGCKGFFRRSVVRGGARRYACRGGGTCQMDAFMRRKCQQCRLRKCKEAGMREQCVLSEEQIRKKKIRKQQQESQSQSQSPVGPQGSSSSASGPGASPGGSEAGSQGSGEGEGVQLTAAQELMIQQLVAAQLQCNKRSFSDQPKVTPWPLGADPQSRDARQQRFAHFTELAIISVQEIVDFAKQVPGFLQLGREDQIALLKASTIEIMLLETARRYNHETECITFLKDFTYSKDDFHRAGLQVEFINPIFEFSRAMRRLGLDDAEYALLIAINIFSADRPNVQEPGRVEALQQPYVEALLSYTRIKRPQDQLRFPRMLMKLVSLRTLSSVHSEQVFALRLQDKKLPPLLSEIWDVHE

[3] = Luminescence Cell-Based Dose Confirmation HTS to Identify Activators of 5'UTR Stem-Loop Driven Alpha-Synuclein mRNA Translation in H4 Neuroglioblastoma Cells. [Related pubchem assays: 1829 (Project Summary), 1814 (Primary HTS)]; assay type: functional
[4] = Luminescence Cell-Based Dose Response to Identify Activators of Luciferase Translation or Activity in H4-C Neuroglioblastoma Cells. [Related pubchem assays: 1829 (Project Summary), 1814 (Primary HTS)]; assay type: functional
[5] = Luminescence Cell-Based Dose Response HTS to Identify Activators of Luciferase Translation or Activity in H4 […] Cells. [Related pubchem assays: 1829 (Project Summary), 1814 (Primary HTS)]; assay type: functional
[6] = Luminescence Cell-Based Dose Response to Identify Activators of 5'UTR Stem-Loop Driven Prion Protein mRNA Translation in H4-C Neuroglioblastoma Cells. [Related pubchem assays: 1829 (Project Summary), 1814 (Primary HTS)]; assay type: functional
[7] = tested on: H4; assay: Luminescence Cell-Based Dose Response HTS to Identify Activators of 5'UTR Stem-Loop Driven Prion Protein mRNA Translation in H4 Neuroglioblastoma Cells. [Related pubchem assays: 1829 (Project Summary), 1814 (Primary HTS)]; assay type: functional; settings: Homo sapiens
[8] = Luminescence Cell-Based Dose Confirmation to Identify Activators of 5'UTR Stem-Loop Driven Alpha-Synuclein mRNA Translation in H4 Neuroglioblastoma Cells. [Related pubchem assays: 1829 (Project Summary), 1814 (Primary HTS)]; assay type: functional
[9] = biological target: T2, Sentrin-specific protease 8 (Homo sapiens, UniProt Q96LD8); assay type: functional
T2 sequence (Q96LD8 whole entry): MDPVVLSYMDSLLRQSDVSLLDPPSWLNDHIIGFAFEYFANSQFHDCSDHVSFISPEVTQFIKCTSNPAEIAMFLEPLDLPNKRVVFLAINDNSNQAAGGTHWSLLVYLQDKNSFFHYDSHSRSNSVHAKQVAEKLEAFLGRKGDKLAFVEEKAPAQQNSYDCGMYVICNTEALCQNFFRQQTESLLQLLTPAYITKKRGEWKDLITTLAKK

[10] = biological target: T2, Sentrin-specific protease 8; assay type: functional; remark: listed apart in the source
[11] = biological target: T3, Caspase-6 (Homo sapiens, UniProt P55212); assay: inhibition of CASP6 peptide cleavage – biochemical, VEID-R110 fluorescence, cherry-pick, dose response (AID 720632)
T3 sequence (P55212 whole entry): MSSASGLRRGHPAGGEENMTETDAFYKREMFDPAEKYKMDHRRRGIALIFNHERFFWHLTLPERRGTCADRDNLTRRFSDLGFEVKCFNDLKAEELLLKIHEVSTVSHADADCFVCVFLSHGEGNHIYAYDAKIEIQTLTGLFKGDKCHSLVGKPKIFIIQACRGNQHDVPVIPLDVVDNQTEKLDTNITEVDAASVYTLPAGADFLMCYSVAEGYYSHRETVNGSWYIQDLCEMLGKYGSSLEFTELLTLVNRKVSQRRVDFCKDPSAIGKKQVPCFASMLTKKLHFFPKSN

[12] = potency of ADAM10 substrate cleavage blockers – biochemical, QFRET, dose response (AID 743254);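 also: ADAM10 enzyme with the DM2 quenched FRET peptide as substrate; EDANS fluorescence gain as the protease cuts the substrate; inhibitor potency against ADAM10 proteolytic activity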
[13] = biological target: Disintegrin and metalloproteinase domain-containing protein 17 (Homo sapiens, UniProt P78536); assay: inhibition of ADAM17 substrate cleavage – biochemical, quenched FRET substrate, counter-screen for ADAM10 exosite inhibitor project, dose response (AID 743253)
Chain of Disintegrin and metalloproteinase domain-containing protein 17 (P78536 whole entry, the tested form may be a part): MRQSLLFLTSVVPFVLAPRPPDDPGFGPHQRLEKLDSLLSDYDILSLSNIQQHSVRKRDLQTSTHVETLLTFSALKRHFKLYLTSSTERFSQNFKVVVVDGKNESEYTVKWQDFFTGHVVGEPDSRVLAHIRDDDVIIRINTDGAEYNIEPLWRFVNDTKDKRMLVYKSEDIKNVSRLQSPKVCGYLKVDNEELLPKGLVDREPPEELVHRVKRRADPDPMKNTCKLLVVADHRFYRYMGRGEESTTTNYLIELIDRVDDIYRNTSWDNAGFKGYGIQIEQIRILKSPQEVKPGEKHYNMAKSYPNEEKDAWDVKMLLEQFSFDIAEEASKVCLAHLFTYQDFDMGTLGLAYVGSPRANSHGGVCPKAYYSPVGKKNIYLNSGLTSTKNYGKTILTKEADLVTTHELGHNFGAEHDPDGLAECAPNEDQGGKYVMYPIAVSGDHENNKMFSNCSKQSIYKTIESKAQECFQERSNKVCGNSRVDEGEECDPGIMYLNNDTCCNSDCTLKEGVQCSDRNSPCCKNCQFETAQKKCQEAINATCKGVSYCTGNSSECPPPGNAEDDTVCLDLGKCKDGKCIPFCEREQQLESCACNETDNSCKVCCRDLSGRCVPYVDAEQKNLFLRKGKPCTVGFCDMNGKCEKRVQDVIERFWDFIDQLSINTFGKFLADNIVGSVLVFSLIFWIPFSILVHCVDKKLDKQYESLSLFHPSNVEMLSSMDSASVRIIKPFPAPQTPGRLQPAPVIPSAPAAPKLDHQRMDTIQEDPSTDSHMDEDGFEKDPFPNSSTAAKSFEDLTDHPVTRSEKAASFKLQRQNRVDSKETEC

[14] = general mammalian cell viability loss – inhibitor set, cherry-pick, set 2, cytotoxicity control for miR-122 modulator project, dose response (AID 720697); assay type: functional, cell-based
[15] = biological target: Large T antigen (Simian virus 40, UniProt P03070); assay type: functional, Betapolyomavirus macacae;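 also: Confirmatory-stage PubChem screen for compounds that inhibit SV40 T antigen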
Chain of Large T antigen (P03070 whole entry): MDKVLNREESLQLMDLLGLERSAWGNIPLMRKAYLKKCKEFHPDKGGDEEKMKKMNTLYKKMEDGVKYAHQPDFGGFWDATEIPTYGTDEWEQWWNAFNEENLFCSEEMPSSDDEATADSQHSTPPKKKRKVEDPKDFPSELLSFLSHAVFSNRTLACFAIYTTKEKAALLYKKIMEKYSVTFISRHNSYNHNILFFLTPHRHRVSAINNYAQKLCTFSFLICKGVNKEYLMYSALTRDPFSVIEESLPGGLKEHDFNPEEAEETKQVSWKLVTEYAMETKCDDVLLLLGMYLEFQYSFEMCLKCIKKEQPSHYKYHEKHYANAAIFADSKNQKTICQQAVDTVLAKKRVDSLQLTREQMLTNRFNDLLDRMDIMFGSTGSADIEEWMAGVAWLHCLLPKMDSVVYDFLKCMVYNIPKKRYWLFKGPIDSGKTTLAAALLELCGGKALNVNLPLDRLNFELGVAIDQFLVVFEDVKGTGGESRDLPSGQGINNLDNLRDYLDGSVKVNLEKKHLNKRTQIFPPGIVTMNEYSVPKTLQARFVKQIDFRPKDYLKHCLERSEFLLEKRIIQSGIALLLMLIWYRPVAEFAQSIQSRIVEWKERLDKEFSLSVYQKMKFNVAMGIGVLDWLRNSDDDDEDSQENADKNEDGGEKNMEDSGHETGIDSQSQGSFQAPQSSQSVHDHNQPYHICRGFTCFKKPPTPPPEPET

[16] = biological target: Eukaryotic translation initiation factor 4E (Mus musculus, UniProt P63073); assay: blockers of eIF4G binding by eIF4E – biochemical, TR-FRET, dose response (AID 855); assay type: functional;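 also: potency for disrupting eIF4E binding to eIF4GI seen as loss of FRET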
Chain of Eukaryotic translation initiation factor 4E (P63073 whole entry): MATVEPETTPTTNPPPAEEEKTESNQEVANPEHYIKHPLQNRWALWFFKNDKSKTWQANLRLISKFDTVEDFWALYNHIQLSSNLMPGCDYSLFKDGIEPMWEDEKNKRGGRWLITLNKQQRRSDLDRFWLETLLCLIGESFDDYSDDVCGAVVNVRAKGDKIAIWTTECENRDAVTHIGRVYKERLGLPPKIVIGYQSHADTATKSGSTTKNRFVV

[17] = biological target: T4, Rac GTPase-activating protein 1 (Homo sapiens, UniProt Q9H0H5); assay: blockers of MgcRacGAP-driven Rac1 GTP hydrolysis – biochemical, ADP Hunter fluorescence, primary and confirmatory, confirmation (AID 624330); assay type: functional
T4 sequence (Q9H0H5 whole entry): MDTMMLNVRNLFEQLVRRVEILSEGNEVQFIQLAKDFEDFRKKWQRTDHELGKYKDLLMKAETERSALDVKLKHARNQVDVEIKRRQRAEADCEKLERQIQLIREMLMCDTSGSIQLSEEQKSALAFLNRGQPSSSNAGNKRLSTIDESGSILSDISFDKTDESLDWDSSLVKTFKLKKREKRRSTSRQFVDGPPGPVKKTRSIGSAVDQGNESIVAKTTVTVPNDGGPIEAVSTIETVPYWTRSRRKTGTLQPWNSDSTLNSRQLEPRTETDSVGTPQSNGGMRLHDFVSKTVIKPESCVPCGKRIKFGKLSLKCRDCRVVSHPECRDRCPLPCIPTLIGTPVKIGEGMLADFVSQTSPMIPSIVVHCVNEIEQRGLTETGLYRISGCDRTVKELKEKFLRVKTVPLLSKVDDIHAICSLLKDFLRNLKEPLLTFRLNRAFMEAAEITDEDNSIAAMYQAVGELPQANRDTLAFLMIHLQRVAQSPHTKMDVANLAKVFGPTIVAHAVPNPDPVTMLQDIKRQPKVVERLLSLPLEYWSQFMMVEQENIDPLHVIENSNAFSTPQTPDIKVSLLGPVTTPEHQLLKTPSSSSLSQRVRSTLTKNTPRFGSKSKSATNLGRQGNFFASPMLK

[18] = biological target: T5, Histone-lysine N-methyltransferase NSD2 (Homo sapiens, UniProt O96028); assay type: biochemical
T5 sequence (O96028 whole entry): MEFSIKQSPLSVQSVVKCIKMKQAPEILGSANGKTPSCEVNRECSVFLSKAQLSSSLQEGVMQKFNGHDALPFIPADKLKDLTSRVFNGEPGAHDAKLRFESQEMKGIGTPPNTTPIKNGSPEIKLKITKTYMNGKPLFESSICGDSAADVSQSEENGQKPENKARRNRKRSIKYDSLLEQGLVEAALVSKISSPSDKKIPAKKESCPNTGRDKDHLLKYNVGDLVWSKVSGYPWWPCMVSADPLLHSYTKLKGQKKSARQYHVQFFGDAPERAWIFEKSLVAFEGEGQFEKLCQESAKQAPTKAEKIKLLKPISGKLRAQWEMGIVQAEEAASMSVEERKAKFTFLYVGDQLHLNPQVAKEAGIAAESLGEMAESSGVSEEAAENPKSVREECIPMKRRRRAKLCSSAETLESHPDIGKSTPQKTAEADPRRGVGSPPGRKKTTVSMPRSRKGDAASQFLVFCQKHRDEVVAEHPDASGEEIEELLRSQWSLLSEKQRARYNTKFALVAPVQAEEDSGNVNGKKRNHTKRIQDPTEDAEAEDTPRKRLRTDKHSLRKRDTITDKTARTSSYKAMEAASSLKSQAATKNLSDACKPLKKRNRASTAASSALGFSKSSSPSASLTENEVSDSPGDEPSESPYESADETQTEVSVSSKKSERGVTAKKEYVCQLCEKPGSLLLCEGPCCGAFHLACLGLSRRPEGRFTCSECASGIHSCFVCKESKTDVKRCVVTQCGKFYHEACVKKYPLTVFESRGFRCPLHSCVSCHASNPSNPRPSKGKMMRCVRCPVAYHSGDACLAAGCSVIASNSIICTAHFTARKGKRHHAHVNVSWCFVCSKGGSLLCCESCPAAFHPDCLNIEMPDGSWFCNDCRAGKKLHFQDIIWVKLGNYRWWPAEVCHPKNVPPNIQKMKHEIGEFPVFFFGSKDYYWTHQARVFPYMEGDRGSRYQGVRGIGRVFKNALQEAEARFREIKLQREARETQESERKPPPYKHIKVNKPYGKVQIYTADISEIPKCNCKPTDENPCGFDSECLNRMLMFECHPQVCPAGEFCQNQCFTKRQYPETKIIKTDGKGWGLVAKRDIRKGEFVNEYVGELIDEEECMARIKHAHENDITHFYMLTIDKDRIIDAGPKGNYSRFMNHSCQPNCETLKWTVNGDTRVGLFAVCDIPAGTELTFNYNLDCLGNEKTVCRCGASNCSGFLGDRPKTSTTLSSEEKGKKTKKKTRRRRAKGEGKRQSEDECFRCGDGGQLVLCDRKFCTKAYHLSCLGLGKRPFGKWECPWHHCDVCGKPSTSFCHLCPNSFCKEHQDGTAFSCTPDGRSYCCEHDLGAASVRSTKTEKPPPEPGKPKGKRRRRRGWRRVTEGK

[19] = biological target: Nonstructural protein 1 (Influenza A virus, UniProt Q194T2); assay type: functional, Influenza A virus (A/California/07/2009(H1N1))
Chain of Nonstructural protein 1 (Q194T2 whole entry): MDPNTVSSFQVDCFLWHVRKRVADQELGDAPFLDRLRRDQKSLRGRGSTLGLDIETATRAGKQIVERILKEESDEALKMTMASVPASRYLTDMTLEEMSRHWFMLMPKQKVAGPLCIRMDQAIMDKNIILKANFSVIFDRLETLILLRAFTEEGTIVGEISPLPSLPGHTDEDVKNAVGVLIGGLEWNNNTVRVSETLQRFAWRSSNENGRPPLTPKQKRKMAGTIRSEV

[20] = biological target: Induced myeloid leukemia cell differentiation protein Mcl-1 (Homo sapiens, UniProt Q07820); assay type: functional
Chain of Induced myeloid leukemia cell differentiation protein Mcl-1 (Q07820 whole entry): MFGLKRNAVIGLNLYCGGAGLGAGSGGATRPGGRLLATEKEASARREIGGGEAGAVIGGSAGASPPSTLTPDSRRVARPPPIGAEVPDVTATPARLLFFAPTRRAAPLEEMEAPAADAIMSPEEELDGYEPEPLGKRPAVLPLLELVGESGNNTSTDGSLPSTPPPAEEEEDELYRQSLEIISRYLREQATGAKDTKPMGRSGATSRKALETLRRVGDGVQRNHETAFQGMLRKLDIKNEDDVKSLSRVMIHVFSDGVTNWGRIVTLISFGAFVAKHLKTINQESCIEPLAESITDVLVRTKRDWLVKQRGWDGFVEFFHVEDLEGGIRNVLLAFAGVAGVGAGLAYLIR

In the case of `Cc1ccc(NC(=O)C2CC(=O)Nc3nncn32)cc1` (configuration not stated), the IC50 [1] is reported as > 67.6 µM (inactive) and the EC50 [2] is reported as > 67.6 µM (inactive).

For `Fc1cccc(Cl)c1Cc1noc(/C=C/c2ccccc2)n1`, the EC50 [3] was < 0.1 µM (active), the EC50 [4] was > 12 µM (not active) and the EC50 [5] was 70.3 µM (active). For the same molecule, the EC50 [6] was > 12 µM (not active), the EC50 [7] was 4.36 µM (active) and the EC50 [8] was > 12 µM (not active).

For `O=C1Cc2ccccc2C(=O)N1c1ccc(F)cc1Cl`, the IC50 [9] was > 100 µM (inactive), the IC50 [10] was 4.41 µM (active) and the AC50 [11] was 20.4 µM (active).

In the case of `Nc1nonc1OCCCCOc1nonc1N`, the IC50 [1] is reported as > 67.6 µM (inactive) and the EC50 [2] is reported as > 67.6 µM (inactive).

For `COc1ccc(S(=O)(=O)N(C)C[C@@H]2OCCCC[C@H](C)Oc3ccc(NC(=O)Nc4ccc(C(F)(F)F)cc4)cc3C(=O)N([C@H](C)CO)C[C@H]2C)cc1`, the IC50 [12] was > 69.5 µM (inactive) and the IC50 [13] was > 69.5 µM (inactive).

For `CCCNC(=O)Nc1ccc2c(c1)C(=O)N(C)[C@@H]1CC[C@H](CC(=O)O)O[C@H]1CO2`, the AC50 [14] was 1.82 µM (active).

For `CN(C)c1ccc(/N=c2/sc3ccccc3n2C)cc1`, the IC50 [15] was 11.4 µM (active), the IC50 [16] was > 64 µM (inactive) and the IC50 [17] was 18.9 µM (active). The AC50 [18] was 10.4 µM (active), the IC50 [19] was 23.9 µM (active) and the IC50 [20] was 40.2 µM (active).
